Earlier results on 86 compounds are cited in the CATMoS acute toxicity set (Mansouri et al. 2021).

Where “and” joins values, the source holds several entries; their conditions need not be identical. Identical values can stand only once.

This data set can be described thus: rat acute oral toxicity. The settings on record: in vivo.
Turning to `CCCCC(CC)CNCC(CC)CCCC` (stereo unspecified), the LD50 (in general, the dose at which mortality reaches 50%) was 1640 mg/kg.

Take `OCC(Cl)CCl` (stereo unspecified): the LD50 is 90 mg/kg.

As to `Cn1cc(OCC(O)CNC(C)(C)C)c2ccccc2c1=O` (stereo unspecified), the 50% lethal dose (LD50) is 145 mg/kg.

For the compound `COC(=O)C1=C(C)NC(C)=C(C(=O)OC/C=C/c2ccccc2)C1c1cccc([N+](=O)[O-])c1` (stereo unspecified), the LD50 is 2970 mg/kg.

`O=C(O)c1ccccc1C(=O)Nc1ccccc1`: the LD50 was 8840 mg/kg.

As for `Nc1c2c(nc3ccccc13)CCCC2`, the LD50 was 70 mg/kg.

With `C=CCNC(=O)OCC(O)C1COc2ccccc2O1` (stereo unspecified), the LD50 is 1500 mg/kg.

For the compound `CC(CCc1ccccc1)NCC(O)c1ccc(O)c(C(N)=O)c1` (stereo unspecified), the LD50 is 2110 mg/kg.

For the compound `CN(CCO)c1ccccc1`, the LD50 is 2830 mg/kg.

On to `Oc1ccc(C(c2ccc(O)cc2)(C(F)(F)F)C(F)(F)F)cc1`, for which the LD50 is 3400 mg/kg.

Turning to `CC(C)NCC(O)c1ccc(NS(C)(=O)=O)cc1` (stereo unspecified), the LD50 was 3450 mg/kg.

For `COC1CC(=C(c2cccs2)c2cccs2)C[N+](C)(C)C1` (stereo unspecified), the LD50 was 1210 mg/kg.

Regarding `CO[Si](C)(CCCNCCN)OC`, the LD50 is 200 mg/kg.

Turning to `N#CCCN(CCO)c1ccccc1`, the LD50 is 3210 mg/kg.

In the case of `O=C(OCC1CO1)c1cccc(C(=O)OCC2CO2)c1` (stereo unspecified), the LD50 is 1000 mg/kg.

Regarding `Cc1cccc(CN2CCN(C(c3ccccc3)c3ccc(Cl)cc3)CC2)c1` (stereo unspecified), the LD50 is 1750 mg/kg.

`O=C(O)C(F)(F)C(F)(F)C(F)(F)C(F)(F)C(F)(F)C(F)(F)C(F)(F)C(F)(F)C(F)(F)F`: the LD50 was 57 mg/kg.

In the case of `FC(F)(F)C(F)(F)OC(F)(F)C(F)(F)F`, the median lethal dose (LD50) is 20000 mg/kg.

Turning to `C(=Nc1ccc(N=Cc2ccco2)cc1)c1ccco1`, the 50% lethal dose (LD50) is 1220 mg/kg.

Consider `Oc1ccccc1-c1ccccc1`, for which the LD50 is 656 mg/kg and 1050 mg/kg.

For the compound `O=C(CF)Nc1ccc(Br)cc1`, the LD50 is 29 mg/kg.

Consider `COc1ccc2c(c1)c(CC(=O)O)c(C)n2C(=O)c1ccc(Cl)cc1`, for which the 50% lethal dose (LD50) is 21 mg/kg.

With `C=CC(=O)OCC(CC)CC`, the 50% lethal dose (LD50) is 6490 mg/kg.

Consider `CCOC(=O)C1=C(COCCN)NC(C)=C(C(=O)OC)C1c1ccccc1Cl` (stereo unspecified), for which the LD50 is 393 mg/kg.

As for `CCCCC(C)=O`, the LD50 is 2590 mg/kg.

`CCCCCOC(C[n+]1ccccc1)c1ccc(C2CCCCC2)cc1` (stereo unspecified): the LD50 is 250 mg/kg.

For `N#Cc1cc([N+](=O)[O-])ccc1N`, the LD50 was 3880 mg/kg.

In the case of `O=C(Cl)C(Cl)(Cl)Cl`, the median lethal dose (LD50) was 600 mg/kg.

Regarding `CC1(C)S[C@@H]2[C@H](NC(=O)C(C(=O)Oc3ccc4c(c3)CCC4)c3ccccc3)C(=O)N2[C@H]1C(=O)O` (stereo partly specified), the LD50 was 4450 mg/kg.

Consider `CNNC`, for which the LD50 was 100 mg/kg and 257 mg/kg.

As for `CN1[C@@H]2CCC[C@H]1C[C@@H](NC(=O)c1nn(C)c3ccccc13)C2`, the LD50 was 350 mg/kg.

For `C#CC(C)(O)C(O)c1ccccc1` (stereo unspecified), the LD50 was 730 mg/kg.

For the compound `CCOC(=O)CC(C)(C)C(Cl)C=C(Cl)Cl` (stereo unspecified), the LD50 was 3170 mg/kg.

As to `CC(C)(C)OOC(=O)C(C)(C)C`, the LD50 is 4300 mg/kg.

Turning to `Cc1nc2ccccc2n1Cc1ccc(Cl)cc1`, the LD50 is 2200 mg/kg.

For the compound `CCCCOCCOCCOCCO`, the LD50 is 5300 mg/kg.

For the compound `CCN1CCCC1CNC(=O)c1cc(S(=O)(=O)CC)ccc1OC` (stereo unspecified), the LD50 was 2100 mg/kg.

As to `CN1C(C(=O)Nc2ccccn2)=C(O)c2sccc2S1(=O)=O`, the LD50 was 79 mg/kg.

On to `O=C(NCC1CCCCN1)c1cc(OCC(F)(F)F)ccc1OCC(F)(F)F` (stereo unspecified), for which the LD50 is 1350 mg/kg.

With `O=C(O)CCC(=O)OC[C@@H](NC(=O)C(Cl)Cl)[C@H](O)c1ccc([N+](=O)[O-])cc1`, the LD50 was 8300 mg/kg.

As to `CC1(C)N=C(N)N=C(N)N1c1ccccc1`, the LD50 is 447 mg/kg.

Consider `CCC(C)C(CN(C)C)c1cc(F)ccc1OC` (stereo unspecified), for which the 50% lethal dose (LD50) was 300 mg/kg.

`CNC(=O)ON=C1CCCC1(C)C#N` (stereo unspecified): the LD50 is 18 mg/kg.

As to `CCCCC(CC)CNCC(C)(N)CN(C)CC(CC)CCCC` (stereo unspecified), the LD50 was 1000 mg/kg.

As for `CCN(CC)Cc1nccn1-c1ccc([N+](=O)[O-])cc1C(=O)c1ccccc1Cl`, the LD50 is 1580 mg/kg.

As to `CC(C)(C)c1cc(O)ccc1O`, the 50% lethal dose (LD50) was 700 mg/kg.

As for `CC=C(C)C(=O)N1CCCc2cc(C)ccc21`, the LD50 is 2200 mg/kg.

On to `CCc1oc2ccccc2c1C(=O)c1cc(Br)c(O)c(Br)c1`, for which the LD50 was 248 mg/kg.

Consider `CC(=Cc1ccccc1)CC(=O)N1CCOCC1`, for which the LD50 was 1000 mg/kg.

Regarding `Cc1ccccc1NC(=S)NN`, the median lethal dose (LD50) was 200 mg/kg.

Turning to `Nc1ccc2c(c1)Cc1cc(N)ccc1-2`, the LD50 was 1070 mg/kg.

For `Cn1c(=O)sc2cccc(Cl)c21`, the median lethal dose (LD50) was 1940 mg/kg.

Regarding `CNS(=O)(=O)c1cc(OC)c(N)cc1C`, the LD50 was 91.5 mg/kg.

For the compound `COP(=O)(OC)OC(=C(Cl)Cl)c1ccc(Cl)cc1Cl`, the LD50 was 109 mg/kg.

Take `O=C(CF)NCc1ccc(Br)cc1`: the LD50 was 410 mg/kg.

On to `CCCN(CCC)C(=O)C(CCC(=O)OCCCOC(=O)Cc1c(C)n(C(=O)c2ccc(Cl)cc2)c2ccc(OC)cc12)NC(=O)c1ccccc1` (stereo unspecified), for which the 50% lethal dose (LD50) is 605 mg/kg.

Take `CCOC(=O)CCCCCCCCC(=O)OCC`: the LD50 is 14500 mg/kg.

On to `CCCCOC(=O)COC(=O)c1ccccc1C(=O)OCCCC`, for which the LD50 is 7000 mg/kg.

As for `COc1ccc(OCCCN(C)CCOc2ccc3c(c2)OCO3)c(C2Sc3ccccc3N(C)C2=O)c1` (stereo unspecified), the LD50 was 206 mg/kg.

In the case of `CCCC[P+](CCCC)(CCCC)Cc1ccc(Cl)cc1Cl`, the LD50 was 178 mg/kg.

Take `CC1(C)C2CCC1(C)C(Oc1ccc(N)cc1)C2` (stereo unspecified): the LD50 is 660 mg/kg.

In the case of `Clc1ccc2ocnc2c1`, the 50% lethal dose (LD50) was 650 mg/kg.

For `CCOP(=O)(OC=C(Cl)Cl)OCC(Cl)CCl` (stereo unspecified), the LD50 was 66 mg/kg.

As to `CCCCNc1ccccc1`, the LD50 was 1620 mg/kg.

Consider `C=C(/C=C/C)C1=C(C)CCCC1(C)C`, for which the LD50 is 2920 mg/kg.

Turning to `O=[N+]([O-])c1ccc(CCl)cc1`, the 50% lethal dose (LD50) is 1810 mg/kg.

Take `Cc1cccc(C(C)c2ccccc2)c1C` (stereo unspecified): the LD50 was 2050 mg/kg.

With `CC(=NNCCC1CCCCC1)C(=O)O`, the LD50 is 520 mg/kg.

In the case of `CCCN(CCC)c1c([N+](=O)[O-])cc(C)cc1[N+](=O)[O-]`, the LD50 is 3600 mg/kg.

For `O=C1C(CCC2CC2)C(=O)N(c2ccccc2)N1c1ccccc1`, the LD50 is 400 mg/kg.

With `CCCCCCCNC(=O)Oc1ccc2c(c1)C1(C)CCN(C)C1N2C` (stereo unspecified), the 50% lethal dose (LD50) is 25.1 mg/kg.

As to `CN(C)C(=O)Nc1ccc(Cl)cc1`, the 50% lethal dose (LD50) was 1050 mg/kg.

For `C=CCC1(C(C)SCCCC)C(=O)N=C(O)NC1=O` (stereo unspecified), the LD50 is 639 mg/kg.

`N#Cc1c(Cl)cccc1Cl`: the LD50 was 2710 mg/kg.

Turning to `CC(=O)Nc1ccc(/N=N/c2c(S(=O)(=O)O)cc3cc(S(=O)(=O)O)cc(NC(C)=O)c3c2O)cc1`, the LD50 is 23200 mg/kg.

With `CCC(=O)OC(=O)CC`, the LD50 is 2360 mg/kg.

As to `Fc1cc(F)c2nc(C(F)(F)F)[nH]c2c1`, the LD50 was 2.49 mg/kg.

For `CCCSP(=O)(OCC)Oc1ccccc1` (stereo unspecified), the LD50 was 295 mg/kg.

In the case of `C=Cc1ccccc1Cl`, the LD50 was 5200 mg/kg.

With `CCCN1C[C@H](CSC)C[C@@H]2c3cccc4[nH]cc(c34)C[C@H]21`, the LD50 was 8.4 mg/kg.

With `c1ccc([B-](c2ccccc2)(c2ccccc2)c2ccccc2)cc1`, the LD50 was 288 mg/kg.

In the case of `CN1CC[C@]23CCCC[C@H]2[C@H]1Cc1ccc(O)cc13`, the LD50 was 150 mg/kg.

`CN(C)CCCN`: the LD50 was 1870 mg/kg.

For the compound `CC(CN(C)C)CN1c2ccccc2OCOc2ccc(Cl)cc21` (stereo unspecified), the LD50 is 600 mg/kg.

Turning to `Oc1ccc2ccccc2c1Cl`, the median lethal dose (LD50) is 2310 mg/kg.

In the case of `N#Cc1ccc(N)cc1`, the LD50 is 283 mg/kg.
